Test results from patent publication US8361998B2, “Compounds and their use as IKACh blockers” (AstraZeneca AB, priority 2010, dated 2013).
pIC50: −log10 of the molar value. Where two headings read alike, the source gives them in different places.

Biological target: T1, human cardiac ion channel proteins hKir3.1/Kir3.4 (Homo sapiens, UniProt P48544+P48549)
T1 construct: expressed in transfected cells
T1 sequence (P48549 1-501): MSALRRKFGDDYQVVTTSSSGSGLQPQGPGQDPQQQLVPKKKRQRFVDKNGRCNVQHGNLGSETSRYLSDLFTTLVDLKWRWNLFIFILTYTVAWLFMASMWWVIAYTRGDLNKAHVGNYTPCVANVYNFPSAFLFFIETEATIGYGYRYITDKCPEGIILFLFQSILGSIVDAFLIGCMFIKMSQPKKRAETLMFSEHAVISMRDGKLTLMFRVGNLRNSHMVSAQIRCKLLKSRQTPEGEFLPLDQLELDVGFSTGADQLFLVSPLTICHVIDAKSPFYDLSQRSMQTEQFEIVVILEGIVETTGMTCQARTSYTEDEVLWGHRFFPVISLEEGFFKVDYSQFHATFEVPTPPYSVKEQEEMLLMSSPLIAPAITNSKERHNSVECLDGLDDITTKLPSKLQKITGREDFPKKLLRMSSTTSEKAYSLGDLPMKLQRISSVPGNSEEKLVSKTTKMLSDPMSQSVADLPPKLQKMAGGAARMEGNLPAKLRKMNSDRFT
T1 sequence (P48544 1-419): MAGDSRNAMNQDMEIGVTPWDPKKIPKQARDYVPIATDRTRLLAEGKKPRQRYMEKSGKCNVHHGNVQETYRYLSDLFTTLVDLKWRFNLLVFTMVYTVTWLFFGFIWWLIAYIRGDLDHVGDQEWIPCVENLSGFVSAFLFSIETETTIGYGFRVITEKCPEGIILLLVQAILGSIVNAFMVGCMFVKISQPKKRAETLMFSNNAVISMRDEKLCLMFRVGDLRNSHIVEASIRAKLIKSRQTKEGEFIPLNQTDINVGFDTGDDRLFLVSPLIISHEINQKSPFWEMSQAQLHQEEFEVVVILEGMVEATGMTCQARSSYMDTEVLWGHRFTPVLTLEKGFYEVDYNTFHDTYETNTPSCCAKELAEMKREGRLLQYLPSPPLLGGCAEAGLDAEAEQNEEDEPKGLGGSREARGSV
Experiment: Atomic Absorption Screening (AAS) Rb efflux assay of hKir3.1/Kir3.4 block, carbachol/high K+ stimulated, 10-pt or 7-pt CR
Format: cell-based
Excerpt: Human KCNJ3 encoding Kir3.1 (Genbank acc. No. NM_002239) was inserted between EcoRI and NotI in the pIRESneo3 vector (Clontech Laboratories, Inc. CA, USA). Human KCNJ5 encoding Kir3.4 (Genbank Acc. No. BC069482) was inserted between EcoR1 and Not1 in the pIRESpuro3 vector (Clontech Laboratories, Inc. CA, USA). A Kozak sequence (GCCACC) was introduced before the start codon ATG of both constructs. Chinese Hamster Ovary K1, CHO-FLP/IN, cells (Invitrogen Corporation, Paisley, UK) were transfected simultaneously using Lipofectamine 2000 reagent (Invitrogen Corporation, Paisley, UK). Geneticin 600 μg/mL (Invitrogen Corporation, Paisley, UK) and puromycin 3 μg/mL (BD Bioscience) were added to the cell culture medium 3 days after transfection. Two weeks after transfection, colonies had appeared and were manually picked and sorted to one cell per well in a 96-well plate. Cells were then tested for Kir3.1 and Kir3.4 expression using membrane potential assay, Western Blot and Immunocytochemistry. […] The cell line was re-sorted by flow cytometry and resulting clones were assayed electrophysiologically using IonWorks (Molecular Devices) and later validated on the Q-Patch (Sophion A/S).
The stable cell line was cultured in DMEM/F12 with Glutamax 1 (Invitrogen Corporation, Paisley, UK), supplemented with foetal bovine serum 10%, puromycin 3 μg/mL, hygromycin 300 μg/mL and geneticin 600 μg/mL (Invitrogen Corporation, Paisley, UK). Care was taken not to seed cells at too low density and cells were passaged at approximately 70-80% confluency. Cells used for patch-clamp experiments were prepared by washing using PBS (—Mg, —Ca^2+), 2 times, detached using Accutase (Sigma). For Q-Patch measurements, storage medium was prepared fresh by adding 1.25 mL of 1M Hepes (GibcoBRL) to 50 mL CHO-SFM II medium (GibcoBRL) and detached cells were diluted to 2 million cells/mL in this medium. Frozen (Cryopreserved) cells were used for Atomic Absorption Screening (AAS) and plated poly-D-lysine 384-well plates (Greiner) at a density of 11,000-13,000 cells/well, the day before assay.
The blocking effects of compounds on the human cardiac ion channel proteins hKir3.1/Kir3.4 were assessed in CHO-K1 cells stably expressing the channel proteins using Atomic Absorption Screening (AAS). Cells were washed and then loaded with 25 μL Rb-loading buffer for three hours at 37° C. After that, the cells were washed again and 25 μL of diluted compound was transferred to the cell plate, incubated for 5 min in RT, and then […] of Carbachol/high K+ (10 μM carbachol and 20 mM KCl final concentration) buffer added to stimulate the cells and open the Kir3.1/Kir3.4 channel. After 10 min stimulation, […] of the supernatant was transferred to a new microplate, 45 μL washing buffer added to the supernatant and the level of Rb in the supernatant was then measured using an Aurora ICR 8000. Compounds were studied at concentrations ranging from 0.003 to 67 μmol/L (dilutions by three, 10-pt CR) or from 0.037 to 27 μmol/L (dilutions by three, 7-pt CR).
Stock solutions of compounds were prepared in DMSO 10 mM and stored at RT. Buffers used for AAS contained (in mM): HEPES 20, NaCl 150, MgCl2 1.0, CaCl2 2.0 and NaH2PO4 0.8 and Glucose 10 (wash 1) or KCl 5 and Glucose 5 (wash 2) or KCl 5 (dilution buffer). The High K^+ channel opener buffer contained (in mM): HEPES 20, NaCl 130, MgCl2 1.0, CaCl2 2.0 and NaH2PO4 0.8 together with KCl 20. Solutions used for Q-Patch (extracellular) in mM: NaCl 145, KCl 4, CaCl2 2.0, MgCl2 1.0, HEPES 10 and glucose 10. The high K^+ extra cellular solution used for Q-Patch in mM: NaCl 96.7, KCl 50.7, CaCl2 2.0, MgCl2 1.0, HEPES 10 and glucose 10 while the intra cellular solution used was (in mM): KCl 120, CaCl2 5.374, MgCl2 1.75, EGTA 10, KOH 3.125, HEPES 10, Na2ATP 4.
Results are given as mean IC50 of >4 replicates (10-pt CR, AAS) or >3 replicates (7-pt CR, AAS). Some of the data in Table 1 are mean values of two or more runs. […]

[1] = 10-pt CR (0.003 to 67 μmol/L), AAS Rb efflux, CHO-K1 cells expressing hKir3.1/Kir3.4, mean of >4 replicates, read-out: IKACh IC50 10-pt CR, AAS
[2] = printed as IC50 >67 μM in the 10-pt CR assay or IC50 >27 μM in the 7-pt CR assay, assay format per compound not stated, read-out: IC50

| SMILES | pIC50 [1] | pIC50 [2] |
| --- | --- | --- |
| CCC[C@@H](CN1C[C@H](O)[C@H]1C)N(C)C(=O)c1ccc(F)cc1 (relative stereo) [Example 43.2, 4-Fluoro-N—((S)-1-((2R*,3S*)-3-hydroxy-2-methylazetidin-1-yl)pentan-2-yl)-N-methylbenzamide] | 5.04 |  |
| CCC[C@@H](CN1C[C@H](O)[C@H]1C)N(C)C(=O)c1ccc(F)c(F)c1 (relative stereo) [Example 43.3, 3,4-Difluoro-N—((S)-1-((2R*,3S*)-3-hydroxy-2-methylazetidin-1-yl)pentan-2-yl)-N-methylbenzamide] | 5.57 |  |
| CN(C(=O)c1ccc(F)c(F)c1)[C@H](CN1CC(O)C1)C1CCCC1 (single isomer, unassigned) [32.1, isomer 1] | 6.59 |  |
| CN(C(=O)c1ccc(F)c(F)c1)[C@H](CN1CC(O)C1)C1CCCC1 (single isomer, unassigned) [32.1, isomer 2] | 5.64 |  |
| COc1ccc(C(=O)N(C)C(CN2CC(O)C2)C2CCCC2)cc1 (single isomer, unassigned) [32.2, isomer 1] | 6.24 |  |
| COc1ccc(C(=O)N(C)C(CN2CC(O)C2)C2CCCC2)cc1 (single isomer, unassigned) [32.2, isomer 2] | 4.82 |  |
| CN(C(=O)c1ccc(Cl)cc1)C(CN1CC(O)C1)C1CCCC1 (single isomer, unassigned) [32.3, isomer 1] | 7.26 |  |
| CN(C(=O)c1ccc(Cl)cc1)C(CN1CC(O)C1)C1CCCC1 (single isomer, unassigned) [32.3, isomer 2] | 6.52 |  |
| Cc1cc(C(=O)N(C)C(CN2CC(O)C2)C2CCCC2)ccc1F (single isomer, unassigned) [32.4, isomer 1] | 7.47 |  |
| Cc1cc(C(=O)N(C)C(CN2CC(O)C2)C2CCCC2)ccc1F (single isomer, unassigned) [32.4, isomer 2] | 6.01 |  |
| CN(C(=O)c1ccc(C#N)cc1)C(CN1CC(O)C1)C1CCCC1 (single isomer, unassigned) [32.5, isomer 1] | 6.47 |  |
| CN(C(=O)c1ccc(C#N)cc1)C(CN1CC(O)C1)C1CCCC1 (single isomer, unassigned) [32.5, isomer 2] | 5.12 |  |
| CN(C(=O)c1ccc(F)cc1Cl)C(CN1CC(O)C1)C1CCCC1 (single isomer, unassigned) [32.6, isomer 1] | 5.96 |  |
| CN(C(=O)c1ccc(F)cc1Cl)C(CN1CC(O)C1)C1CCCC1 (single isomer, unassigned) [32.6, isomer 2] | 5.64 |  |
| CN(C(=O)c1ccc(F)c(Cl)c1)C(CN1CC(O)C1)C1CCCC1 (single isomer, unassigned) [32.7, isomer 1] | 7.12 |  |
| CN(C(=O)c1ccc(F)c(Cl)c1)C(CN1CC(O)C1)C1CCCC1 (single isomer, unassigned) [32.7, isomer 2] | 6.80 |  |
| CC[C@H](C)C(CN1CC(O)C1)N(C)C(=O)c1ccc(F)c(F)c1 (stereo in doubt) [Example 29.1, 3,4-Difluoro-N-((2S,3S)-1-(3-hydroxyazetidin-1-yl)-3-methylpentan-2-yl)-N-methylbenzamide] | 5.03 |  |
| CC(C)[C@@H](CN1CC[C@H](O)C1)N(C)C(=O)c1cc(F)cc(F)c1F [2,3,5-Trifluoro-N-[(1S)-1-{[(3S)-3-hydroxypyrrolidin-1-yl]methyl}-2-methylpropyl]-N-methylbenzamide] |  | < 4.57 |
| CC(C)[C@@H](CN1CCCCC1)N(C)C(=O)c1cc(F)cc(F)c1F [2,3,5-Trifluoro-N-methyl-N-[(1S)-2-methyl-1-(piperidin-1-ylmethyl)propyl]benzamide] |  | < 4.57 |
| CC(C)[C@@H](CCN1CCCC1)N(C)C(=O)c1ccccc1Cl [2-Chloro-N-methyl-N-[(1R)-2-methyl-1-(2-pyrrolidin-1-ylethyl)propyl]benzamide] |  | < 4.57 |
| CC(C)[C@@H](CN1CC[C@H](O)C1)N(C)C(=O)c1cc(C(F)(F)F)ccc1F [2-Fluoro-N-[(1S)-1-{[(3S)-3-hydroxypyrrolidin-1-yl]methyl}-2-methylpropyl]-N-methyl-5-(trifluoromethyl)benzamide] |  | < 4.57 |
| CCC[C@@H](CN1C[C@@H](O)[C@@H]1C)N(C)C(=O)c1ccc(F)c(F)c1 [3,4-Difluoro-N-((S)-1-((2S,3R)-3-hydroxy-2-methylazetidin-1-yl)pentan-2-yl)-N-methylbenzamide] |  | < 4.57 |
| CC(C)[C@H](CN1CCCC1)N(C)C(=O)c1ccc(F)c(Cl)c1 [3-Chloro-4-fluoro-N-methyl-N-[(1R)-2-methyl-1-(pyrrolidin-1-ylmethyl)propyl]benzamide] |  | < 4.57 |
| CC(CN1CCCC1)N(C)C(=O)c1cccc(Cl)c1 (stereo not shown) [3-Chloro-N-methyl-N-(1-methyl-2-pyrrolidin-1-ylethyl)benzamide] |  | < 4.57 |
| CC(C)[C@@H](CN1CC[C@H](O)C1)N(C)C(=O)c1cccc(C#N)c1 [3-Cyano-N-[(1S)-1-{[(3S)-3-hydroxypyrrolidin-1-yl]methyl}-2-methylpropyl]-N-methylbenzamide] |  | < 4.57 |
| CC(C)[C@H](CN1CCCC1)N(C)C(=O)c1cccc(C#N)c1 [3-Cyano-N-methyl-N-[(1R)-2-methyl-1-(pyrrolidin-1-ylmethyl)propyl]benzamide] |  | < 4.57 |
| CC(C)[C@@H](CN1CCCCC1)N(C)C(=O)c1cccc(C#N)c1 [3-Cyano-N-methyl-N-[(1S)-2-methyl-1-(piperidin-1-ylmethyl)propyl]benzamide] |  | < 4.57 |
| C[C@@H](CN1CCCC1)N(C)C(=O)c1ccc(Br)cc1 [4-Bromo-N-methyl-N-[(1S)-1-methyl-2-pyrrolidin-1-ylethyl]benzamide] |  | < 4.57 |
